Experimental findings from US10703748B2, “Diazanaphthalen-3-yl carboxamides and preparation and use thereof” (Samumed, LLC, priority 2017, dated 2020) are described below.

The subject of test [1] is secreted cytokines TNFα, IL-6 and KC-GRO. As to the kind of experiment: Secreted cytokines in Lipopolysaccharide-stimulated BV-2 cells (Table 9 does not say which cytokine). In kind it is cell-based, mouse. Conditions: Mus musculus, BV-2, 5 h; read-out: EC50.
Experimental: BV-2 cells (mouse microglial cells) were cultured in 1:1 DMEM medium supplemented with 10% FBS, and 1% penicillin/streptomycin.
BV-2 cells are plated at 35,000 cells/well in a volume of 100 μl for at least 4 hours before compounds are added. […] Compounds were added to cells overnight. […] Supernatant is removed and saved for further cytokine detection. The original plates with seeded cells were tested for cytotoxicity by measure of adenosine triphosphate (ATP) release by adding CellTiter-Glo® diluted 1:4 in distilled water (G7573, Promega) and transferring lysed cells to a completely black 96-well plate to be read with the Cytation3. Supernatant was then diluted 1:2 with a diluent from V-PLEX cytokine Kit and directly tested for the secreted cytokines TNFα, IL-6 and KC-GRO using electrochemiluminescence (Meso Scale Discovery). The standard curve for each cytokine was used to convert the electrochemiluminescent signal into pg of protein per mL.
The target in the next test is GSK3β kinase (Homo sapiens, UniProt P49841). As to the kind of experiment: GSK3β kinase activity (Ser/Thr 09 peptide Z-lyte FRET assay). As to conditions: recombinant kinase, 46 μM ATP, one hour at room temperature; read-out: EC50. In kind it is biochemical.
The test system of test [2] is α-smooth muscle actin (aSMA) positive LL29 cells. The test can be described thus: Inhibition of the fibrotic process: αSMA staining in TGF-β1 treated LL29 fibroblasts from IPF patients. Conditions: Homo sapiens, Fibroblast; for EC50: 96 h; for inhibition at 10 µM: read-out: percentage in parentheses after EC50 >10.
The subject of test [3] is Wnt-responsive Sp5-Luc reporter in SW480 colon carcinoma cells. As to the kind of experiment: Screening assay for Wnt activity (Sp5-Luc reporter gene assay). Conditions: Homo sapiens; for EC50: SW480; for inhibition at 10 µM: SW480, read-out: percent inhibition at 10 μM.
The next test concerns the target DYRK1A kinase (Homo sapiens, UniProt Q13627). As to the kind of experiment: DYRK1A kinase activity (Ser/Thr 18 peptide Z-lyte FRET assay).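 Also: kinase activity read as coumarin/fluorescein emission ratio after development step, with unphosphorylated and phosphorylated peptide forms setting 0% and 100% controls, values from dose-response curves.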 Type of test: biochemical. Conditions: recombinant DYRK1A, 30 μM ATP, one hour at room temperature.
Test [4] relates to SW480 colon carcinoma cells. The test can be described thus: Cell viability assay (CellTiter-Glo). As to conditions: Homo sapiens; for EC50: SW480, 96 h; for inhibition at 10 µM: SW480, read-out: percent inhibition at 10 μM. On the technique in general: ATP-based viability assays read luminescence as a measure of living cells.
Another test concerns IL-6. As to the kind of experiment: IL-6 inhibition in LPS-stimulated human peripheral blood mononuclear cells (HTRF). Conditions: Homo sapiens, PBMC; for EC50: 22 h; for inhibition at 10 µM: read-out: percentage in parentheses after EC50 >10.

A word on the EC50: it is the concentration that produces a half-maximal response.

Chain of GSK3β kinase (P49841 whole entry): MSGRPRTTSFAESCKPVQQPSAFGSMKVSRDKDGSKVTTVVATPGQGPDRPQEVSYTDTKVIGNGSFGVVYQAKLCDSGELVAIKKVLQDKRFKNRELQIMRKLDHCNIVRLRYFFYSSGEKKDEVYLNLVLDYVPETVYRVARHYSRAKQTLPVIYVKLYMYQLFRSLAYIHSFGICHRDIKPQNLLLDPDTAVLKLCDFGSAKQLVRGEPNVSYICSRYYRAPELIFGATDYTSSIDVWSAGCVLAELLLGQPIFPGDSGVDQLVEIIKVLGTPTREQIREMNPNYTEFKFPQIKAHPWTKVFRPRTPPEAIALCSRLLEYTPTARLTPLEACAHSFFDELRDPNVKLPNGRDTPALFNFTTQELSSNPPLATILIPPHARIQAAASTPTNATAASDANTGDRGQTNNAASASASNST

As to `Cn1ncc(-c2ccc3cnc(NC(=O)c4ccnc(N5CCOCC5)c4)nc3c2)c1CN1CCOCC1` [Compound 1220, N-(7-(1-Methyl-5-(morpholinomethyl)-1H-pyrazol-4-yl)quinazolin-2-yl)-2-morpholinoisonicotinamide], the EC50 was 877 nM in test [1]; 5600 nM on GSK3β kinase; above 10000 nM in test [2]; 1820 nM in test [3]; 19 nM on DYRK1A kinase; 5300 nM in test [4]. For the same molecule, the half-maximal effective concentration (EC50) with IL-6 is above 10000 nM. For the same molecule, the inhibition at 10 µM amounted to 5.5% in test [2] and 0% in the test with IL-6.

In the case of `CC(C)OC(=O)N1CCC(n2cc(C(=O)Nc3ncc4ccc(-c5cnn(C)c5)cc4n3)cn2)CC1` [Compound 1141, Isopropyl 4-(4-((7-(1-methyl-1H-pyrazol-4-yl)quinazolin-2-yl)carbamoyl)-1H-pyrazol-1-yl)piperidine-1-carboxylate], the 50% effective concentration (EC50) in test [1] worked out at 177 nM; at GSK3β kinase, 4060 nM; in test [2] it was 1390 nM; in test [3] it was 414 nM; at DYRK1A kinase, 8 nM; in test [4] it was 717 nM. In the test on IL-6, this molecule displayed an EC50 of 3130 nM.

On to `Cn1cc(-c2ccc3cnc(NC(=O)c4ccnc(OC5CCNCC5)c4)cc3n2)cn1` [Compound 153, N-(2-(1-Methyl-1H-pyrazol-4-yl)-1,6-naphthyridin-7-yl)-2-(piperidin-4-yloxy)isonicotinamide], for which the EC50 in test [1] is 159 nM; on GSK3β kinase, 6000 nM; in test [2], 1100 nM; in test [3] it was 111 nM; on DYRK1A kinase it was 4 nM; in test [4], 353 nM. Further, the EC50 in the test with IL-6 came to 2070 nM.

Consider `CN1CCN(c2ccc(C(=O)Nc3cc4nc(-c5cnn(C)c5)ccc4cn3)cn2)CC1` [Compound 151, N-(2-(1-Methyl-1H-pyrazol-4-yl)-1,6-naphthyridin-7-yl)-6-(4-methylpiperazin-1-yl)nicotinamide], for which the EC50 in test [1] stood at 88 nM; on GSK3β kinase, 571 nM; in test [2], 432 nM; in test [3], 498 nM; on DYRK1A kinase, 2 nM; in test [4], 3680 nM. In the test with IL-6, the EC50 came out at 3680 nM.

As to `CN1CCC(Oc2cccc(C(=O)Nc3ncc4ccc(-c5cnco5)cc4n3)c2)CC1` [Compound 1497, 3-((1-Methylpiperidin-4-yl)oxy)-N-(7-(oxazol-5-yl)quinazolin-2-yl)benzamide], the EC50 in test [1] was 334 nM; on GSK3β kinase, above 10000 nM; in test [2], 2430 nM; in test [3], above 10000 nM; on DYRK1A kinase, 30 nM; in test [4], above 10000 nM. Also, the half-maximal effective concentration (EC50) in the test on IL-6 was above 10000 nM. Besides, the inhibition at 10 µM was 41.7% in test [3], 23.7% in test [4] and 4.8% in the test on IL-6.

As for `Cc1ncc(C(=O)Nc2ncc3ccc(-c4cnc(C)n4C)cc3n2)s1` [Compound 1353, N-(7-(1,2-Dimethyl-1H-imidazol-5-yl)quinazolin-2-yl)-2-methylthiazole-5-carboxamide], the concentration for a half-maximal effect (EC50) in test [1] is 812 nM; on GSK3β kinase it was 1350 nM; in test [2] it was above 10000 nM; in test [3], 2180 nM; on DYRK1A kinase it was 11 nM; in test [4] it was 4480 nM. Also, the EC50 in the test on IL-6 is above 10000 nM. The inhibition at 10 µM in test [2] is 42%; with IL-6 it was 4.1%.

Consider `O=C(Nc1ncc2ccc(-c3cncs3)cc2n1)C1CCN(C2COC2)CC1` [Compound 1523, 1-(Oxetan-3-yl)-N-(7-(thiazol-5-yl)quinazolin-2-yl)piperidine-4-carboxamide], for which the EC50 was 1800 nM in test [1]; 1380 nM on GSK3β kinase; above 10000 nM in test [2]; above 10000 nM in test [3]; 47 nM on DYRK1A kinase; above 10000 nM in test [4]. In the test on IL-6, this molecule registered a half-maximal effective concentration (EC50) above 10000 nM. Moreover, the inhibition at 10 µM worked out at 24.9% in test [2], 13.7% in test [3], 15.1% in test [4] and 6.2% in the test with IL-6.

For `CN1CCC(n2cc(C(=O)Nc3cc4cc(-c5cnn(C)c5)ncc4cn3)cn2)CC1` [Compound 3856, N-(6-(1-Methyl-1H-pyrazol-4-yl)-2,7-naphthyridin-3-yl)-1-(1-methylpiperidin-4-yl)-1H-pyrazole-4-carboxamide], the EC50 was 194 nM in test [1]; 1750 nM at GSK3β kinase; above 10000 nM in test [2]; 367 nM in test [3]; 10 nM on DYRK1A kinase; 446 nM in test [4]. In the test with IL-6, this molecule displayed a half-maximal effective concentration (EC50) of 3990 nM. Besides, the inhibition at 10 µM in test [2] worked out at 17.5%.

With `Cn1cc(-c2cnc3cnc(NC(=O)C4CCN(Cc5ncccn5)CC4)cc3c2)cn1` [Compound 2820, N-(3-(1-Methyl-1H-pyrazol-4-yl)-1,7-naphthyridin-6-yl)-1-(pyrimidin-2-ylmethyl)piperidine-4-carboxamide], the concentration giving a half-maximal response (EC50) in test [1] was 895 nM; at GSK3β kinase, 7060 nM; in test [2], 8910 nM; in test [3], above 10000 nM; on DYRK1A kinase, 37 nM; in test [4], above 10000 nM. The EC50 with IL-6 was above 10000 nM. Also, the inhibition at 10 µM in test [3] came out at 5.3%; in test [4], 22.4%; in the test with IL-6 it was 3.3%.

For `Cn1cc(-c2cnc3cnc(NC(=O)C4CCN(CC5(C(F)(F)F)CC5)CC4)cc3c2)nn1` [Compound 3067, N-(3-(1-Methyl-1H-1,2,3-triazol-4-yl)-1,7-naphthyridin-6-yl)-1-((1-(trifluoromethyl)cyclopropyl)methyl)piperidine-4-carboxamide], the EC50 in test [1] is 3900 nM; on GSK3β kinase, 836 nM; in test [2], above 10000 nM; in test [3] it was 4500 nM; on DYRK1A kinase, 58 nM; in test [4], above 10000 nM. In addition, the EC50 in the test with IL-6 is above 10000 nM. In addition, the inhibition at 10 µM in test [2] is 31.7%; in test [4], 42.2%; with IL-6, 0%.

In the case of `Cc1cn2c(n1)CN(C(=O)Nc1cc3cc(-c4cnco4)cnc3cn1)CC2` [Compound 4615], the EC50 in test [1] was 275 nM; at GSK3β kinase, 7820 nM; in test [2], above 10000 nM; in test [3], 3830 nM; at DYRK1A kinase, 27 nM; in test [4], 2670 nM. This molecule returned an EC50 in the test with IL-6 above 10000 nM. Further, the inhibition at 10 µM in test [2] was 35.6%; in the test with IL-6 it was 5.8%.

`CN1CCN(Cc2cccc(C(=O)Nc3cc4nc(-c5cnn(C)c5)ccc4cn3)c2)CC1` [Compound 172, N-(2-(1-Methyl-1H-pyrazol-4-yl)-1,6-naphthyridin-7-yl)-3-((4-methylpiperazin-1-yl)methyl)benzamide]: the concentration for a half-maximal effect (EC50) worked out at 214 nM in test [1]; 765 nM at GSK3β kinase; 393 nM in test [2]; 445 nM in test [3]; 13 nM at DYRK1A kinase; 1010 nM in test [4]. In addition, in the test with IL-6, the EC50 was above 10000 nM. Besides, in the test with IL-6, the inhibition at 10 µM stood at 32.7%.

Turning to `CC(C)OC(=O)N1CCC(n2cc(C(=O)Nc3cc4nc(-c5cnn(C)c5)ccc4cn3)cn2)CC1` [Compound 234, Isopropyl 4-(4-((2-(1-methyl-1H-pyrazol-4-yl)-1,6-naphthyridin-7-yl)carbamoyl)-1H-pyrazol-1-yl)piperidine-1-carboxylate], the concentration for a half-maximal effect (EC50) in test [1] is 26 nM; at GSK3β kinase it was 2250 nM; in test [2] it was 329 nM; in test [3] it was 124 nM; at DYRK1A kinase, 4 nM; in test [4] it was 229 nM. In addition, in the test with IL-6, the 50% effective concentration (EC50) is 1890 nM.

In the case of `Cc1nnc(-c2ccc3cnc(NC(=O)CN4C[C@@H]5C[C@H]4CO5)nc3c2)s1` [Compound 4593, 2-((1S,4S)-2-Oxa-5-azabicyclo[2.2.1]heptan-5-yl)-N-(7-(5-methyl-1,3,4-thiadiazol-2-yl)quinazolin-2-yl)acetamide], the concentration for a half-maximal effect (EC50) is 2500 nM in test [1]; 34 nM on GSK3β kinase; above 10000 nM in test [2]; above 10000 nM in test [3]; 131 nM on DYRK1A kinase; above 10000 nM in test [4]. This molecule returned a concentration giving a half-maximal response (EC50) in the test with IL-6 above 10000 nM. Further, the inhibition at 10 µM amounted to 41.4% in test [2], 32.8% in test [3], 27.4% in test [4] and 4.8% in the test with IL-6.

Regarding `Cc1ncc(-c2ccc3cnc(NC(=O)c4ccncc4)cc3n2)s1` [Compound 641, N-(2-(2-Methylthiazol-5-yl)-1,6-naphthyridin-7-yl)isonicotinamide], the EC50 in test [1] is 433 nM; at GSK3β kinase it was 2560 nM; in test [2], 347 nM; in test [3], 977 nM; at DYRK1A kinase it was 8 nM; in test [4], 1680 nM. Further, the half-maximal effective concentration (EC50) in the test on IL-6 was above 10000 nM. The inhibition at 10 µM in the test on IL-6 was 16.4%.
